The values below come from patent US6693120B1, “Spray drying of thrombin inhibitors” (Abbott GmbH & Co. KG, priority 1999, dated 2004).

Format in all cases: physicochemical
Data set [1] is described as follows: Storage stability at 70° C., 1 bar in an open vessel (HPLC).
Data set [2] in a line: HPLC content of the active substance after drying.
Data set [3] in a line: Hygroscopicity: weight gain on storage in desiccators at constant humidity. More on the design: unit not given here. The following applies: vacuum-dried. The protocol: To determine the hygroscopicity, samples of the dry active substance are stored in desiccators in which a constant humidity has been set by saturated salt solutions, at constant temperature. The weight change is determined by weighing at intervals of a few days. The weight gain is determined by the following formula: [formula]

Take “N-((Hydroxycarbonyl)methylene)-(R)-cyclohexylalanyl-(S)-3,4-dehydroproline 6-Amidino-3-Picoli-nylamide [Betaine (n = 0)]”: the “active substance content based on initial active substance content” value (“active substance content based” below) in data set [1] (0 days) was 100 HPLC % areas; in data set [1] (7 days), 92.5 HPLC % areas; in data set [1] (14 days), 88.6 HPLC % areas.

On to “N-((Hydroxycarbonyl)methylen)-(R)-cyclohexylalanyl-(S)-3,4-dehydroproline 6-Amidino-3-picolinylamide Dihydrochloride [Betaine × 2HCl]”, for which the entries for the “active substance content based” value in data set [1] (0 days), in data set [1] (7 days) and in data set [1] (14 days) were 100 HPLC % areas, 99.7 HPLC % areas and 99.7 HPLC % areas, respectively.

As to “N-((Hydroxycarbonyl)methylene)-(R)-cyclohexylalanyl-(S)-3,4-dehydroproline 6-Amidino-3-picolinylamide Hydrochloride [Betaine × HCl]”, the “HPLC content of the active substance in % areas” value came out at 98.5% in data set [2] (spray dried) and 97.8% in data set [2] (vacuum dried (60° C./12 h)). Moreover, the figures for the byproducts entry in data set [2] (spray dried) and in data set [2] (vacuum dried (60° C./12 h)) were “no additional” and “additional byproducts”, respectively. The “active substance content based” value is recorded as 100 HPLC % areas in data set [1] (0 days), 98.5 HPLC % areas in data set [1] (7 days) and 97.5 HPLC % areas in data set [1] (14 days). The weight gain in data set [3] (45% R.H., 0 days) amounted to 0; in data set [3] (45% R.H., 3 days), 0.28; in data set [3] (45% R.H., 6 days), 0.31; in data set [3] (45% R.H., 9 days) it was 0.26; in data set [3] (45% R.H., 14 days), 0.23; in data set [3] (45% R.H., 21 days) it was 0.26. In addition, the weight gain was found to be 0 in data set [3] (65% R.H., 0 days); 3.50 in data set [3] (65% R.H., 3 days); 3.86 in data set [3] (65% R.H., 6 days); 3.59 in data set [3] (65% R.H., 9 days); 3.54 in data set [3] (65% R.H., 14 days); 3.45 in data set [3] (65% R.H., 21 days). In addition, the weight gain in data set [3] (75% R.H., 0 days) is 0; in data set [3] (75% R.H., 3 days), 7.60; in data set [3] (75% R.H., 6 days), 9.31; in data set [3] (75% R.H., 9 days), 7.98; in data set [3] (75% R.H., 14 days) it was 7.84; in data set [3] (75% R.H., 21 days), 7.86. Further, the weight gain is recorded as 0 in data set [3] (86% R.H., 0 days); 15.51 in data set [3] (86% R.H., 3 days); 20.23 in data set [3] (86% R.H., 6 days); 16.66 in data set [3] (86% R.H., 9 days); 16.61 in data set [3] (86% R.H., 14 days); 16.14 in data set [3] (86% R.H., 21 days). The weight gain was 0 in data set [3] (93% R.H., 0 days); 19.73 in data set [3] (93% R.H., 3 days); 20.34 in data set [3] (93% R.H., 6 days); 18.97 in data set [3] (93% R.H., 9 days); 19.11 in data set [3] (93% R.H., 14 days); 18.78 in data set [3] (93% R.H., 21 days).
